In patent publication US6369101B1, “Therapeutic method to treat herpes virus infection” (Regents of the University of Minnesota, priority 1999, dated 2002):
In brackets after ≈: the same amount, converted by molar mass. Where a name gives a salt, the structure may show the parent alone. Read-outs that look alike come from different tables or passages of the source.

Experiments:
HSV-1 strain E-377 = experiment: CPE inhibition assay, HSV-1 E377 in human foreskin fibroblast cells; for Qualitative CPE at 2.0 ml dose HSV-1 E377: key: +++ = Complete cytopathic effect; ++ = Moderate cytopathic effect; + = Minimum cytopathic effect; − = No cytopathic effect; type: cell-based, herpes simplex virus type 1; conditions: for Qualitative CPE at 2.0 ml dose HSV-1 E377: solution conc. per compound (ng/ml) (Acyclovir 250); for EC50: Human alphaherpesvirus 1, HFF, read-out: EC50 HSV-1 E377
Procedure: (§1) Stock solutions of the compounds used for the testing of antiviral activity against HSV-1 and HSV-2 were prepared in distilled water, filtered through 0.2 μm filter (Acrodisco®, Gelman Sciences, USA) and stored at room temperature until used.
(§2) Human laryngeal epithelial carcinoma cells (HEp-2, ATCC, Rockville, Md.) were used for testing of antiviral compounds by cytopathic effect (CPE) inhibition and plaque reduction assay. Primary human foreskin fibroblast cells (HFF) obtained from Dr. E. R. Kern (Department of Pediatrics, University of Alabama Medical School, 309 Bevill Biomedical Research Building, 845 19th Street South, Birmingham, Ala., 35294-2170), were used for cytopathic effect (CPE) inhibition assay. HEp-2, African green monkey kidney cells (Vero, ATCC), HFF and primary rabbit kidney cells were used to determine the cytotoxic effect of compounds of formula I. These cells were propagated in Dulbeco's modified Eagle's medium (DMEM) (Sigma, USA) supplemented with 10% inactivated fetal calf serum (FCS), 25 mM HEPES, 0.2% sodium bicarbonate and 1% penicillin/-streptomycin at 37° C. in the presence of 5% CO2.
(§3) The antiviral activity of the test compounds was determined against HSV-1 strain F, HSV-2 strain G (ATCC), HSV-1 strain E-377 and HSV-2 strain MS (Dr. E. R. Kern, see above), CMV strain AD 169 (NIH), HCMV (NIH), MCMV (NIH), and VZV strain Ellen (NIH). Highly infective virus stocks of HSV-1 and HSV-2 were prepared by infecting a confluent monolayer of HEp-2 (ATCC) or HFF in 150 cm^2 plastic tissue culture flasks (Falcon, USA) at a multiplicity of infection of 0.5 in DMEM supplemented with 10% inactivated fetal calf serum and 1% penicillin/streptomycin at 37° C. in the presence of 5% CO2. The infected cells were disrupted through three freeze/thaw cycles, and viruses were clarified from large cell debris by low speed centrifugation at 3000 rpm for 10 minutes. The virus suspension was separated, aliquoted and stored at −80° C. until assayed or used for animal infection. The stock HSV-1 (E377) and HSV-2 (MS strain) contained 3.5×10^8 and 1.1×10^7 pfu/ml respectively.
(§4) Low passage HFF cells were seeded into 96-well tissue culture plates 24 hours prior to use at a cell concentration of 2.5×10^4 cells per ml in 0.2 ml of DMEM supplemented with 10% fetal calf serum. After 24 hours of incubation at 37° C. in the presence of 5% CO2, medium was removed and the test compounds were diluted two-fold in DMEM in the 96-well tissue culture plate containing monolayer. […] For both HSV-1 and HSV-2 assays, the virus concentration utilized was 1000 pfu/ml and for HCMV, MCMV, and VZV assay 2500 pfu/ml were used. The plates were then incubated at 37° C. in the presence of 5% CO2 for two to three days for HSV-1 and HSV-2, 10 days for VZV and 14 days for HCMV and MCMV. The virus induced cytopathic effect (CPE) was monitored microscopically every day. CPE of HSV-1 was recognized by cell rounding and clumping, while HSV-2 formed large syncytia along with rounding and clumping of cells. […] EC50s were estimated from graphical plots of percent CPE against the concentration of the test compounds. The EC50s for each compound are the mean of EC50s for three or more independent experiments. After three days of incubation period, media was aspirated and the cells stained with a 0.1% crystal violet solution for 30 minutes. The stain was then removed and the plates were rinsed with tap water, air dried and retained.

HSV-2 strain MS = experiment: CPE inhibition assay, HSV-2 MS in human foreskin fibroblast cells; for Qualitative CPE at 2.0 ml dose HSV-2 MS: key: +++ = Complete cytopathic effect; ++ = Moderate cytopathic effect; + = Minimum cytopathic effect; − = No cytopathic effect; type: cell-based, herpes simplex virus type 2; conditions: for Qualitative CPE at 2.0 ml dose HSV-2 MS: HFF cells, solution conc. per compound (ng/ml) (Acyclovir 250); for EC50: Human alphaherpesvirus 2, HFF, read-out: EC50 HSV-2 MS
Procedure: as §1, §2, §3, §4

[1] = system: Primary human foreskin fibroblast cells (HFF); experiment: Cell proliferation assay (cytotoxicity) in HFF cells; type: cell-based; conditions: for Qualitative Cytotoxic Effect at 2.0 ml dose: HFF cells, solution conc. per compound (ng/ml) (Acyclovir 250); for CC50: Human foreskin fibroblast cells, reduces growth of uninfected cells by 50%
Procedure: (§5) Human laryngeal epithelial carcinoma cells (HEp-2, ATCC, Rockville, Md.) were used for testing of antiviral compounds by cytopathic effect (CPE) inhibition and plaque reduction assay. […] HEp-2, African green monkey kidney cells (Vero, ATCC), HFF and primary rabbit kidney cells were used to determine the cytotoxic effect of compounds of formula I. These cells were propagated in Dulbeco's modified Eagle's medium (DMEM) (Sigma, USA) supplemented with 10% inactivated fetal calf serum (FCS), 25 mM HEPES, 0.2% sodium bicarbonate and 1% penicillin/-streptomycin at 37° C. in the presence of 5% CO2.
(§6) HFF, Vero and HEp-2 cells were seeded in 24-well tissue culture plates at a concentration of […] in DMEM containing 10% FCS and incubated for 24 hours at 37° C. in the presence of 5% CO2. To the monolayer of these cells 0.5, 1.0, 1.5 and 2.0 ml of solution of antiviral compounds were added in the respective wells in duplicate and the cells were then incubated in a 5% CO2 incubator at 37° C. for 72 hours. The cells were observed daily for any change in morphology. […] At the end of this time, the media-drug solution was removed and the cells washed. One ml of 0.25% trypsin was added to each well and incubated until the cells start to come off of the plate. The cells-media mixture was then pipetted up and down several times to resuspend the cells and 0.2 ml of the cell suspension was added to 9.8 ml of trypan blue and cells were counted using hemocytometer. Each sample was counted three times with three replicate wells per sample.

[2] = as above; type: cell-based, human; conditions: Human foreskin fibroblast cells, reduces growth of uninfected cells by 50%
Procedure: as §5, §6

HSV-2 strain G = experiment: CPE inhibition, HSV-2 strain G in HEp-2 cells; note: key: +++ = Complete cytopathic effect; ++ = Moderate cytopathic effect; + = Minimum cytopathic effect; − = No cytopathic effect; type: cell-based, herpes simplex virus type 2; conditions: conc. per compound (ng/ml)
Source text: as §2, §3, §4

[3] = system: Human laryngeal epithelial carcinoma cells (HEp-2); experiment: Cytotoxicity in HEp-2 cells; type: cell-based; conditions: HEp-2 cells; conc. per compound (ng/ml)
Procedure: as §5, §6

HSV-1 strain F = experiment: CPE inhibition, HSV-1 strain F in HEp-2 cells; note: key: +++ = Complete cytopathic effect; ++ = Moderate cytopathic effect; + = Minimum cytopathic effect; − = No cytopathic effect; type: cell-based, herpes simplex virus type 1; conditions: conc. per compound (ng/ml)
Source text: as §2, §3, §4

Human Cytomegalovirus = experiment: CPE inhibition in stationary cells (visual), HCMV in HFF cells; type: cell-based; conditions: test compounds in DMSO
Epstein-Barr Virus = experiment: VCA expression in EBV-infected Daudi cells; conditions: Epstein-Barr Virus, Daudi cells, VCA; test compounds in DMSO
Source text: Raji is a Burkitt's lymphoma cell line containing 60 EBV genome/cell, and was the primary cell used for screening antiviral activity against EBV early antigen (EA) expression. […] It spontaneously expresses EBV EA in 0.25-0.5% of the cells. It was used in follow-up studies to confirm activity. These cell lines respond to superinfection by EBV by expressing EA-diffuse component EA (D), EA restricted component EA (R), and viral capsid antigen (VCA). […] The cultures were fed twice weekly and the cell concentration was adjusted to 3×10^5/ml. The cells were kept at 37° C. in humidified atmosphere with 5% CO2.
Cells were infected with the P3HR-1 strain of HBV and the test compound was added after adsorption (45 minutes at 37° C.) and washing of the cell cultures. The cultures were incubated for two days in complete medium to allow viral gene expression. Following the 48 hours of incubation, the numbers of cells of each sample was counted and smears were made. Monoclonal antibodies to the different EA components and VCA were then added to the cells and then incubated and washed. This is followed by a fluorescein conjugated rabbit anti-mouse IgG antibody, and the number of fluorescence cells in the smear were counted. The total number of cells in the cultures positive for EA or VCA were then calculated and compared.

Varicella-Zoster Virus = experiment: CPE inhibition in stationary cells (visual), VZV in HFF cells; type: cell-based; conditions: test compounds in DMSO

Compound | Cytopathic Effect (CPE) Inhibition HSV-2 Strain G (HSV-2 strain G) | Cell Cytotoxicity [3] | Cytopathic Effect (CPE) Inhibition HSV-1 Strain F (HSV-1 strain F) | EC50 HSV-1 E377 (HSV-1 strain E-377; CPE inhibition in HFF cells) [µg/mL] | EC50 HSV-2 MS (HSV-2 strain MS; CPE inhibition in HFF cells) [µg/mL] | CC50 [1] [µg/mL] | further results
CC1(C)CCC23CC[C@]4(C)C(CCC5[C@@]6(C)CCC(=O)C(C)(C)C6CC[C@]54C)C2C1OC3 (some centres unmarked) [Allobetulon] | ++ | − | ++ |  |  |  | Qualitative CPE at 2.0 ml dose HSV-1 E377 (HSV-1 strain E-377; HFF cells): +++; EC50 (HSV-1 strain E-377; CPE inhibition in HFF cells): 0.3 µg/mL (≈ 0.681 µM); Qualitative CPE at 2.0 ml dose HSV-2 MS (HSV-2 strain MS): +++; EC50 (HSV-2 strain MS; CPE inhibition in HFF cells): 0.3 µg/mL (≈ 0.681 µM); Qualitative Cytotoxic Effect at 2.0 ml dose [1]: −; CC50 at 72 h ([2]; primary human foreskin fibroblast (HFF) cells): 0.3 µg/mL (≈ 0.681 µM)
CC1(C)CCC23CC[C@]4(C)C(CCC5[C@@]6(C)C=C(O)C(=O)C(C)(C)C6CC[C@]54C)C2C1OC3=O (some centres unmarked) [Example 13, Allobetulonlacton 1-ene-2-ol] |  |  |  |  |  |  | melting point: 238.8 to 243.6 °C (dec.)
CC1(C)CCC23CC[C@@]4(C)C(CCC5[C@@]6(C)CCC(OP(=O)(O)O)C(C)(C)C6CC[C@]54C)C2C1OC3 (some centres unmarked) [Allobetulin 3-phosphate, Allobetulin Phosphate] | ++ | − | +++ | >0.25 | 0.25 | >0.125 | anti HSV-1 activity (in words) (HSV-1 strain E-377; HFF cells, HSV-1 (E377)): significant activity
CC1(C)CCC23CC[C@]4(C)C(CCC5[C@@]6(C)CC(Br)C(=O)C(C)(C)C6CC[C@]54C)C2C1OC3=O (some centres unmarked) [Example 12, 2-Br-Allobetulonlacton] |  |  |  |  |  |  | melting point: 338 to 342.8 °C (dec.)
CC1(C)CCC23CC[C@]4(C)C(CCC5[C@@]6(C)CCC(O)C(C)(C)C6CC[C@]54C)C2C1OC3=O (some centres unmarked) [Allobetulin lactone, Allobetulin-Lactone] | ++ | − | +++ |  |  |  | EC50 (HSV-1 strain E-377): > 0.125 µg/mL; EC50 (HSV-2 strain MS): 0.2 µg/mL (≈ 0.438 µM); CC50 at 72 h [2]: > 0.125 µg/mL
Betulin glycerol oxalate |  |  |  |  |  |  | EC50 (Human Cytomegalovirus): >0.1 µg/mL; EC50 (Epstein-Barr Virus): 0.0072 µg/mL; EC50 (Varicella-Zoster Virus): >0.02 µg/mL
CC1(C)CCC23CCC4(C)C(CCC5C6(C)CCC(OC(=O)c7ccccc7C(=O)O)C(C)(C)C6CCC54C)C2C1OC3 (centres unmarked) [Allobetulin 3-phthalate, Allobetulin, 3-Phthalate] | ++ | − | ++ | >0.25 | 0.25 (≈ 0.423 µM) | >0.25 | 
Allobetulin ethanolamine chlorohydrate |  |  |  | 0.125 | 0.125 | 0.125 | 
Allobetulin ethanolamine |  |  |  | >0.25 | >0.25 | 0.2 | 
CC(=O)OC1CCC2(C)C(CCC3(C)C2CCC2C4C5OC(=O)C4(CCC5(C)C)CCC23C)C1(C)C (stereo not drawn) [3β-Acetoxy-19αH-19,28lactone-oleanan, Allobetulin-3-acetyl lactone (3β-Acetoxy-19αH-19,28-lactone-oleanane)] | ++ | − | ++ | 0.225 (≈ 0.451 µM) | 0.125 (≈ 0.251 µM) | 0.225 (≈ 0.451 µM) | Qualitative CPE at 2.0 ml dose HSV-1 E377 (HSV-1 strain E-377; HFF cells): +++; Qualitative CPE at 2.0 ml dose HSV-2 MS (HSV-2 strain MS): ++; Qualitative Cytotoxic Effect at 2.0 ml dose [1]: +
Cc1ccc(S(=O)(=O)OC2CC[C@@]3(C)C(CC[C@]4(C)C3CCC3C5C6OCC5(CCC6(C)C)CC[C@]34C)C2(C)C)cc1 (some centres unmarked) (as salt: tosylate) [Example 9, Allobetulin Tosylate] |  |  |  |  |  |  | melting point: 180 to 182.6 °C (dec.)
CC1(C)CCC23CC[C@]4(C)C(CCC5[C@@]6(C)CCC(=O)C(C)(C)C6CC[C@]54C)C2C1OC3=O (some centres unmarked) [Example 10, Allobetulon Lactone] |  |  |  |  |  |  | melting point: 333.7 to 335.9 °C (dec.)
CC1(C)CCC23CCC4(C)C(CCC5C6(C)CCC(OC(=O)CO)C(C)(C)C6CCC54C)C2C1OC3 (centres unmarked) [Allobetulin 3-glycolate, Allobetulin, 3-Glycolate] | ++ | − | +++ | >0.25 | 0.125 (≈ 0.25 µM) | >0.25 | 
CC1(C)CCC23CCC4(C)C(CCC5C6(C)CCC(OC(=O)CCC(=O)O)C(C)(C)C6CCC54C)C2C1OC3 (centres unmarked) [Allobetulin Succinate, Allobetulin, 3-Succinate] | + | − | ++ | >0.25 | >0.25 | >0.25 | 
